Results reported in patent US8361969B2, “Designer cyclic peptides—HIV gp120 antagonists and their applications” (priority 2011, dated 2013).
Values joined by “and” are separate entries in the source; they are usually repeats but may differ in a detail not shown here. Equal values may be shown once. Non-standard residues stand in square brackets, D forms with d. Residues, ends and D or L forms follow the SMILES beside them. dBip = N[C@H](Cc1ccc(-c2ccccc2)cc1)C(=O)O

What was measured:
cells = conditions: highest tested concentration 100 μM
HIV-1 = conditions: read-out: IC50, inhibition of HIV-1 entry (attachment assay); compounds pre-equilibrated with the cells rather than with the virus; value represents lower boundary of actual activity
Source text: An attachment assay, described by Lackman-Smith et al., 2008, was used.

## CC[C@H](C)[C@@H]1NC(=O)[C@H](CC(=O)O)NC(=O)[C@H](Cc2ccccc2)NC(=O)[C@H](CC(=O)O)NC(=O)[C@@H](CC(=O)O)NC(=O)[C@@H](Cc2ccc(-c3ccccc3)cc2)NC(=O)[C@H]2CCCN2C(=O)CNC(=O)[C@@H](CCC(=O)O)NC(=O)[C@@H](Cc2ccc(O)cc2)NC(=O)[C@H](CCCCN)NC(=O)[C@@H](CC(C)C)NC(=O)[C@@H](CC(=O)O)NC(=O)[C@H]([C@@H](C)CC)NC1=O [2-s4-98rp-39m-60-1_MC] (cyclo(DFDII[dD][dL]K[dY][dE]G[dP][dBip][dD]))
cells
  cytotoxicity (none observed up to the highest tested concentration): > 100 µM
HIV-1
  IC50: ≤ 1640 nM and 1640 nM
